Assay results: patent US20130012506A1 (priority 2010, published 2013)

Legend:
[1] = test system: M. tuberculosis H37Rv; format: cell-based, Mycobacterium tuberculosis
[2] = test system: M. tuberculosis clinical isolates; format: cell-based, Mycobacterium tuberculosis; conditions: multi-drug-resistant and extensive-drug-resistant isolates

In the case of `O=c1c(CO)c(Nc2cccc(Cl)c2)nc2c(F)cccn12` [compound 264, 2-(3-Chlorophenylamino)-9-fluoro-3-(hydroxymethyl)-4H-pyrido[1,2-a]pyrimidin-4-one], the spontaneous mutational rate [1] is reported as 7×10^−7.
`Cc1cccn2c(=O)c(C=O)c(Nc3cccc(Cl)c3)nc12` [compound 133, 2-(3-Chlorophenylamino)-9-methyl-4-oxo-4H-pyrido[1,2-a]pyrimidine-3-carbaldehyde] was tested, and the “MIC values for MDR-TB and XDR-TB isolates strains” value [2] was “within the micromolar range”.
In the case of `NNC(=O)c1ccncc1` [INH, isoniazid], the Frequency of resistance [1] is reported as 2.9×10^−6.
